Activity calls are given as the source filed them. No cut-off for these calls is given here.
Tests used:
[1] = molecular target: T1, Macrophage migration inhibitory factor (Homo sapiens, UniProt P14174); test: Inhibition of human recombinant MIF ketonase activity using phenylpyruvate as substrate
T1 sequence (P14174 whole entry): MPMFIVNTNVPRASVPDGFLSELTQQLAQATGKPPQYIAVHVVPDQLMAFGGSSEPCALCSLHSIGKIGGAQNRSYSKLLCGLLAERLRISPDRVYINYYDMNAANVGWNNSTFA

[2] = molecular target: T1, Macrophage migration inhibitory factor; test: Inhibition of human recombinant MIF enolase activity using phenylpyruvate as substrate
RAW264.7 [3] = test: Antiinflammatory activity in LPS induced mouse RAW264.7 cells assessed as reduction of ROS production at 50 uM pretreated for 30 mins followed by LPS addition measured after 24 hrs measured by fluorescence based assay; format: functional, cell-based; conditions: time 24.5 hrs
RAW264.7 [4] = test: Reduction of macrophage activation in LPS induced mouse RAW264.7 cells assessed as NF-kappaB activation at 50 uM pretreated for 30 mins followed by LPS addition measured after 24 hrs relative to control; format: functional; design: scale not given: the % may be the effect or the level left; conditions: time 24.5 hrs
RAW264.7 [5] = test: Antiproliferative activity against LPS induced mouse RAW264.7 cells at 50 uM measured after 24 hrs; format: functional, cell-based
RAW264.7 [6] = test: Antiinflammatory activity in LPS induced mouse RAW264.7 cells assessed as reduction of nitrite production at 50 uM pretreated for 30 mins followed by LPS addition measured after 24 hrs measured by Griess reagent method; format: functional, cell-based; conditions: time 24.5 hrs
RAW264.7 [7] = test: Reduction of macrophage activation in LPS induced mouse RAW264.7 cells assessed as reduction in IL-6 production at 50 uM pretreated for 30 mins followed by LPS addition after 24 hrs by ELISA method; format: functional, cell-based; conditions: time 24.5 hrs
RAW264.7 [8] = test: Reduction of macrophage activation in LPS induced mouse RAW264.7 cells assessed as reduction in TNF-alpha production at 50 uM pretreated for 30 mins followed by LPS addition after 24 hrs by ELISA method; format: functional, cell-based; conditions: time 24.5 hrs
RAW264.7 [9] = test: Reduction of macrophage activation in LPS induced mouse RAW264.7 cells assessed as NF-kappaB activation at 50 uM pretreated for 30 mins followed by LPS addition measured after 24 hrs; format: functional, cell-based; conditions: time 24.5 hrs
Mus musculus = test: Protection against C57BL/6 mouse assessed as increase in LPS-induced colonic temperature at 1.8 mg/kg, ip for 30 mins followed by LPS addition measured from 130 to 360 mins; format: functional, organism-based; conditions: time 160-390 min
RAW264.7 [10] = test: Antiproliferative activity against LPS induced mouse RAW264.7 cells assessed as decrease in number of living cells at 50 uM pretreated for 30 mins followed by LPS addition measured after 24 hrs relative to control; format: functional; design: scale not given: the % may be the effect or the level left; conditions: time 24.5 hrs

Row | SMILES | IC50 ([1]; read-out: IC50) | IC50 ([2]; read-out: IC50) | also measured
1 | O=C1/C(=C/c2ccccc2)COc2cc(O)ccc21 | 42.7 µM | 23.4 µM | 
2 | O=C1/C(=C/C=C/c2ccccc2)CCc2cc(O)ccc21 | 35.2 µM |  | IC50 [2]: Not Active
3 | COc1ccc2c(c1)CC/C(=C\c1cccnc1)C2=O | 63.4 µM | 81.4 µM | 
4 | COc1ccc2c(c1)C(=O)/C(=C/c1ccc(O)c(OC)c1)C2 | 19.8 µM | 38.3 µM | 
5 | O=C1/C(=C/c2ccc(O)cc2)COc2ccccc21 | 127 µM | 72.7 µM | 
6 | COc1cc(/C=C2\CCc3cc(O)ccc3C2=O)cc(OC)c1OC | 64.7 µM | 484 µM | 
7 | O=C1/C(=C/c2ccccc2)CCc2cc(O)ccc21 | 2.04 µM | 1.99 µM | Activity (RAW264.7 [3]): inactive; Activity (RAW264.7 [4]): ~35%; Activity (RAW264.7 [5]): inactive; Activity (RAW264.7 [6]): Active; Activity (RAW264.7 [7]): Active; Activity (RAW264.7 [8]): Active
8 | O=C1/C(=C/c2ccc(O)cc2)CS(=O)(=O)c2ccccc21 | 33.4 µM | 102 µM | 
9 | O=C1/C(=C/c2cccc(O)c2)CCc2ccccc21 | 25.4 µM | 35.9 µM | 
10 | COc1ccc(/C=C2\CCc3cc(O)ccc3C2=O)cc1 | 67.2 µM | 44 µM | 
11 | COc1cc(/C=C2\CCc3cc(OC)c(OC)cc3C2=O)ccc1O |  | 104 µM | IC50 [1]: Not Active
12 | COc1ccc2c(c1)CC/C(=C\c1ccc(O)c(OC)c1)C2=O | 49.2 µM | 53 µM | 
13 | CC(C)c1ccc(/C=C2\CCc3cc(O)ccc3C2=O)cc1 | 2.12 µM | 4.43 µM | 
14 | O=C1/C(=C/c2ccc(O)c(O)c2)Cc2ccccc21 | 12.9 µM |  | IC50 [2]: Not Active
15 | COc1cc(/C=C2\CCc3cc(O)ccc3C2=O)ccc1O | 30.4 µM | 30.9 µM | 
16 | O=C1/C(=C/c2cccnc2)CCc2cc(O)ccc21 | 72.6 µM | 33.3 µM | 
17 | O=C1/C(=C/c2c[nH]c3ccccc23)CCc2cc(O)ccc21 | 60.7 µM | 210 µM | 
18 | O=C1/C(=C/c2ccc(O)cc2)Cc2ccccc21 | 0.88 µM | 1.22 µM | Activity (RAW264.7 [5]): inactive; Activity (RAW264.7 [9]): inactive; Activity (RAW264.7 [7]): Active; Activity (RAW264.7 [8]): Active
19 | COc1ccc2c(c1)C(=O)/C(=C/c1ccc(OC)c(O)c1)C2 | 204 µM | 73.8 µM | 
20 | O=C1/C(=C/c2cccs2)CCc2cc(O)ccc21 | 51 µM | 6.46 µM | 
21 | COc1ccc2c(c1)CC/C(=C\c1ccc(O)c(O)c1)C2=O | 78 µM | 132 µM | 
22 | O=C1/C(=C/c2cc(O)cc(O)c2)CCc2ccccc21 | 65 µM | 24.9 µM | 
23 | O=C1/C(=C/c2ccc(O)cc2)CCc2ccccc21 | 49.2 µM | 1.94 µM | Activity (RAW264.7 [4]): ~35%; Activity (RAW264.7 [5]): inactive; Activity (RAW264.7 [7]): Active; Activity (RAW264.7 [8]): Active; Activity (Mus musculus): Active
24 | O=C1/C(=C/c2ccccc2O)Cc2ccccc21 | 40.7 µM | 401 µM | 
25 | COc1ccc2c(c1)CC/C(=C\c1ccccc1)C2=O | 48.9 µM | 126 µM | 

Row | SMILES | IC50 ([1]; read-out: IC50) | IC50 ([2]; read-out: IC50) | also measured
26 | O=C1/C(=C/c2ccccn2)CCc2cc(O)ccc21 | 32.1 µM | 65.9 µM | 
27 | COc1ccc2c(c1)CC/C(=C\c1ccncc1)C2=O | 58.8 µM | 107 µM | 
28 | CCN(CC)CCOc1ccc(/C=C2\CCc3cc(O)ccc3C2=O)cc1 | 8.75 µM | 41.3 µM | 
29 | O=C1/C(=C/c2ccc(O)cc2)CSc2ccccc21 | 99.3 µM | 827 µM | 
30 | O=C1/C(=C/c2cccc(O)c2O)Cc2ccccc21 | 2.05 µM | 39.3 µM | 
31 | O=C1/C(=C/c2ccc(O)cc2)COc2cc(O)ccc21 | 1.54 µM | 8.72 µM | Activity (RAW264.7 [5]): inactive; Activity (RAW264.7 [9]): inactive; Activity (RAW264.7 [6]): Active; Activity (RAW264.7 [7]): Active; Activity (RAW264.7 [8]): Active
32 | O=C1/C(=C/c2ccc3c(c2)OCO3)CCc2cc(O)ccc21 | 22 µM | 65.8 µM | 
33 | N#Cc1ccc(/C=C2\CCc3cc(O)ccc3C2=O)cc1 | 68 µM |  | IC50 [2]: Not Active
34 | COc1cc(/C=C2\CCc3ccccc3C2=O)ccc1O | 51.1 µM |  | 
35 | COc1ccc2c(c1)CC/C(=C\c1ccc(C)cc1)C2=O |  | 2620 µM | IC50 [1]: Not Active
36 | Cc1ccc(/C=C2\CCc3cc(O)ccc3C2=O)cc1 | 51.5 µM | 71.4 µM | 
37 | O=C1/C(=C/c2ccc(O)cc2)CCc2cc(O)ccc21 | 23.9 µM |  | IC50 [2]: Not Active
38 | O=C1/C(=C/c2ccc[nH]2)CCc2cc(O)ccc21 | 162 µM | 81.3 µM | 
39 | O=C1/C(=C/c2ccc(O)cc2)CCCc2ccccc21 | 67.2 µM | 13.8 µM | 
40 | COc1cc(/C=C2\Cc3ccccc3C2=O)ccc1O | 96.5 µM | 14.5 µM | 
41 | COc1ccc(/C=C2\Cc3ccccc3C2=O)cc1O | 4.95 µM | 1.32 µM | Activity (RAW264.7 [10]): 80.46%; Activity (RAW264.7 [9]): inactive; Activity (RAW264.7 [7]): Active; Activity (RAW264.7 [8]): Active
42 | O=C1/C(=C/c2cccc(O)c2)CCc2cc(O)ccc21 | 19.6 µM | 111 µM | 
43 | O=C1/C(=C/c2ccccc2O)CCc2ccccc21 | 29.8 µM | 1160 µM | 
44 | COc1ccc2c(c1)C(=O)/C(=C/c1cccc(O)c1O)C2 | 9.88 µM | 17 µM | 
45 | COc1ccc2c(c1)CC/C(=C\c1ccc(O)cc1)C2=O | 2.99 µM | 2.98 µM | 
46 | COc1ccc2c(c1)C/C(=C\c1cccc(O)c1O)C2=O | 67.3 µM | 28.9 µM | 
47 | CN(C)c1ccc(/C=C2\CCc3cc(O)ccc3C2=O)cc1 | 25.7 µM | 39.7 µM | 
48 | O=C1/C(=C/c2ccco2)CCc2cc(O)ccc21 | 31.4 µM | 38.2 µM | 
49 | O=C1/C(=C/c2ccccc2O)CCc2cc(O)ccc21 | 39.1 µM | 50.2 µM | 
